Experimental data taken from patent publication US10343988B1, “Hydroxytyrosol thiodipropionic acid ester with antioxidant activity and a method of preparing the same” (SHAANXI UNIVERSITY OF SCIENCE AND TECHNOLOGY, priority 2019, dated 2019).
Entries after “also recorded” stand apart in the source; their conditions may differ.

Test: DPPH radical scavenging activity assay
Assay type: biochemical
Conditions: for Scavenging Activity (%) (n = 3): DPPH in methanol, 30 min, 517 nm
Excerpt: DPPH Radical Scavenging Activity Assay
2,2-Diphenyl-1-picryl hydrazyl (DPPH) is an organic compound composed of a stable organic radical. In the DPPH molecule, due to the presence of multiple electron-withdrawing —NO2 and large it bonds of the benzene ring, nitrogen free radical is stabilized. Its methanol solution is purple and has a maximum absorption peak at 517 nm. After the addition of an antioxidant, DPPH captures an electron to be paired with the free electron, and the purple fades and turns into a yellow substance. The absorption at 517 nm disappears, and the degree of fading is quantitatively related to the number of electrons it captures. Based on this principle, a spectrophotometer is used to detect the change of the absorbance of the DPPH radical and the sample solution, and the ability of the sample to provide hydrogen atoms and scavenge free radicals can be measured.
(a) Preparation of DPPH solution:measuring exact amount of 2,2-diphenyl-1-picryl hydrazyl (DPPH) and dissolving in methanol to prepare a 0.2×10^−4 mol/L DPPH solution, stored at 0° C. in dark.
(b) Preparation of sample solutions: Vc (vitamin C, positive control), hydroxytyrosol thiodipropionic acid ester, hydroxytyrosol (control), thiodipropionic acid (control), and a mixture of hydroxytyrosol and thiodipropionic acid (control) were dissolved in methanol and diluted in a concentration gradient.
Measuring the scavenging activity of the sample solutions: 2 mL of the sample solutions (table 1) at each concentration gradient was taken, 2 mL 0.2×10^−4 mol/L DPPH solution was added, the mixture was mixed and reacted at room temperature in dark for 30 minutes, and methanol was then added to adjust final volume. The absorbance Ai was measured at 517 nm. 2 mL control solution and 2 mL methanol were mixed, and the absorbance Aj was measured. 2 mL DPPH solution and 2 mL methanol were mixed, and the absorbance A0 was measured.
(d) The scavenging activity of the sample solution and control solutions is calculated according to the following calculation formula and shown in Table 3 and FIG. 3. Scavenging activity (%)=100×[1−(Ai−Aj)/A0]

[1] = sample concentration 1.648 μg/mL, room temperature, dark
[2] = sample concentration 8.242 μg/mL
[3] = sample concentration 16.484 μg/mL
[4] = sample concentration 37.969 μg/mL
[5] = sample concentration 65.938 μg/mL
[6] = sample concentration 131.875 μg/mL
[7] = sample concentration 263.750 μg/mL
[8] = sample concentration 527.500 μg/mL
[9] = sample concentration 1055.000 μg/mL

SMILES | DPPH radical scavenging activity (result in words, comparison with controls) (1.648 to 1055 μg/mL, compared at same concentration) | Scavenging Activity (%) (n = 3) [1] | Scavenging Activity (%) (n = 3) [2] | Scavenging Activity (%) (n = 3) [3] | Scavenging Activity (%) (n = 3) [4] | Scavenging Activity (%) (n = 3) [5] | Scavenging Activity (%) (n = 3) [6] | Scavenging Activity (%) (n = 3) [7] | Scavenging Activity (%) (n = 3) [8] | Scavenging Activity (%) (n = 3) [9]
O=C(CCSCCC(=O)OCCc1ccc(O)c(O)c1)OCCc1ccc(O)c(O)c1 [A, bis(3,4-dihydroxyphenethyl) 3,3′-thiodipropanoate] | obvious DPPH radical scavenging activity in a concentration dependent manner; also recorded: better DPPH radical scavenging activity than hydroxytyrosol (B), thiodipropionic acid (C), and a 2:1 physical mixture of hydroxytyrosol and thiodipropionic acid (D) at same concentration | 32.44% | 42.37% | 52.29% | 66.79% | 79.39% | 90.01% | 96.95% | 97.71% | 98.09%
OCCc1ccc(O)c(O)c1 [B, 4-(2-hydroxyethyl)-1,2-benzenediol] | – | 8.44% | 10.97% | 22.78% | 29.96% | 43.04% | 62.87% | 73.00% | 75.11% | 75.95%
O=C(O)CCSCCC(=O)O [C, 3,3′-thiodipropionic acid] | – | 3.24% | 4.86% | 9.72% | 16.19% | 20.65% | 27.13% | 31.58% | 32.39% | 38.06%
O=C1O[C@H]([C@@H](O)CO)C(O)=C1O [Vc, Vitamin C] | – | 34.01% | 37.06% | 44.67% | 67.51% | 95.43% | 97.46% | 98.98% | 99.49% | 99.49%
